The values that follow come from patent publication US20060089390A1, “3-benzoyl-2,4,5-substituted pyridine derivatives or salts thereof and bactericides containing the same” (Ishihara Sangyo Kaisha, Ltd., priority 2002, published 2006).

The subject of one data set is wheat powdery mildew. The data set can be described thus: Test on preventive effect against wheat powdery mildew. The data set is classed as in vivo, Wheat (cultivar: Norin-61-go). To be noted: Triticum aestivum, foliar spray before inoculation, examined 6 to 8 days after inoculation, read-out: controlling effects as compared with non-treated cases (area of sporogony). The procedure:
Tests on Preventive Effect Against Wheat Powdery Mildew Wheat (cultivar: […] After the drug solution dried, the wheat was inoculated by spreading with conidiospore of fungi of powdery mildew, and the wheat was kept in a thermostatic chamber at 20° C. From 6 to 8 days after the inoculation, the area of sporogony was examined.

In data set [1] the test system is cucumber powdery mildew. The data set can be described thus: Test on preventive effect against cucumber powdery mildew. The data set is classed as in vivo, Cucumber (cultivar: Suyo). The settings on record: Cucumis sativus, foliar spray before inoculation, examined 6 to 11 days after inoculation, read-out: controlling effects as compared with non-treated cases (area of sporogony). The procedure: Test on Preventive Effect Against Cucumber Powdery Mildew Cucumber (cultivar: […] After the drug solution dried, the cucumber was sprayed and inoculated with a conidiospore suspension of fungi of powdery mildew, and the cucumber was kept in a thermostatic chamber at 20° C. From 6 to 11 days after the inoculation, the area of sporogony was examined.

In the next data set the test system is rice blast. As to the kind of experiment: whole plant or invertebrate. The data set is classed as in vivo, Rice (cultivar: Nihonbare). To be noted: Pyricularia oryzae, foliar, read-out: controlling effects as compared with non-treated cases (number of lesions).
The test system of data set [2] is cucumber powdery mildew. As to the kind of experiment: Test on rainfastness of effect against cucumber powdery mildew. The data set is classed as in vivo, Cucumber (cultivar: Suyo). The settings on record: Cucumis sativus, topical, 500 gai/ha. The method, then:
Cucumber (cultivar: […] A day after the treatment, 10 mm/hr of artificial rainfall was applied for 1 hour. Together with seedlings not subjected to rainfall treatment (preventive), the cucumber was sprayed and inoculated with a conidiospore suspension of fungi of powdery mildew, and the cucumber was kept in a thermostatic chamber at 20° C. From 6 to 11 days after the inoculation, the number of lesions was examined, and the controlling rate was calculated by comparison with the non-treated cases. The results are shown in Table 5.

Where [3] appears, read: 10 mm/hr artificial rainfall for 1 hour a day after treatment, read-out: Controlling rate of cucumber powdery mildew (%) Rainfall.
Setting [4] is: no rainfall treatment (preventive), read-out: Controlling rate of cucumber powdery mildew (%) Preventive.

Read-outs that look alike come from different tables or passages of the source.

In the case of `CCc1c(Cl)cnc(OC)c1C(=O)c1c(C)cc(OC)c(OC)c1OC` [1-2, 3-(2,3,4-trimethoxy-6-methylbenzoyl)-5-chloro-4-ethyl-2-methoxypyridine], the pest or weed control at 125 ppm in the data set with wheat powdery mildew and in the data set on cucumber powdery mildew [1] was not below 90% throughout. The pest or weed control at 500 ppm with rice blast was not below 90%.

Regarding `CCOc1cc(C(=O)c2c(OC)ncc(Cl)c2Cl)c(C)cc1OC` [1-4, 3-(5-ethoxy-4-methoxy-2-methylbenzoyl)-4,5-dichloro-2-methoxypyridine], the pest or weed control at 125 ppm in the data set with wheat powdery mildew and in the data set with cucumber powdery mildew [1] was not below 90% in each case.

Take `CCOc1ncc(Cl)c(Br)c1C(=O)c1c(C)cc(OC)c(OC)c1OC` [1-5, 3-(2,3,4-trimethoxy-6-methylbenzoyl)-4-bromo-5-chloro-2-ethoxypyridine]: the pest or weed control at 125 ppm in the data set with wheat powdery mildew and in the data set with cucumber powdery mildew [1] was not below 90% each time.

Consider `CCOc1ncc(Cl)c(C)c1C(=O)c1c(C)cc(OC)c(OC)c1OC` [1-6, 3-(2,3,4-trimethoxy-6-methylbenzoyl)-5-chloro-2-ethoxy-4-methylpyridine], for which the pest or weed control at 125 ppm in the data set on wheat powdery mildew is not below 90%.

For the compound `CCOc1ncc(Br)c(Cl)c1C(=O)c1c(C)cc(OC)c(OC)c1OC` [1-7, 3-(2,3,4-trimethoxy-6-methylbenzoyl)-5-bromo-4-chloro-2-ethoxypyridine], the pest or weed control at 125 ppm in the data set on wheat powdery mildew and in the data set on cucumber powdery mildew [1] was not below 90% throughout.

As to `COc1cc(C)c(C(=O)c2c(OC)ncc(Cl)c2SC)c(OC)c1OC` [1-10, 3-(2,3,4-trimethoxy-6-methylbenzoyl)-5-chloro-2-methoxy-4-methylthiopyridine], the pest or weed control at 125 ppm in the data set with wheat powdery mildew and in the data set with cucumber powdery mildew [1] was not below 90% throughout.

On to `COc1cc(C)c(C(=O)c2c(OC)ncc(Br)c2Br)c(OC)c1OC` [1-12, 3-(2,3,4-trimethoxy-6-methylbenzoyl)-4,5-dibromo-2-methoxypyridine], for which the pest or weed control at 500 g/ha with cucumber powdery mildew [2] (setting [3]) was 68%; in the data set on cucumber powdery mildew [2] (setting [4]) it was 100%. Also, the pest or weed control at 125 ppm in the data set with wheat powdery mildew and with cucumber powdery mildew [1] was not below 90% throughout.

On to `COc1cc(C)c(C(=O)c2c(OC)ncc(C)c2Br)c(OC)c1OC` [1-13, 3-(2,3,4-trimethoxy-6-methylbenzoyl)-4-bromo-2-methoxy-5-methylpyridine], for which the pest or weed control at 125 ppm with wheat powdery mildew and in the data set on cucumber powdery mildew [1] was not below 90% in each case.

With `COc1cc(C)c(C(=O)c2c(OC)ncc(Br)c2C(F)(F)F)c(OC)c1OC` [1-14, 3-(2,3,4-trimethoxy-6-methylbenzoyl)-5-bromo-4-trifluoromethyl-2-methoxypyridine], the pest or weed control at 500 g/ha in the data set on cucumber powdery mildew [2] (setting [3]) and in the data set with cucumber powdery mildew [2] (setting [4]) was 100% in each case. Moreover, the pest or weed control at 125 ppm in the data set with wheat powdery mildew and with cucumber powdery mildew [1] was not below 90% each time.

Consider `COc1cc(C)c(C(=O)c2c(Cl)ncc(I)c2Cl)c(OC)c1OC` [1-17, 3-(2,3,4-trimethoxy-6-methylbenzoyl)-2,4-dichloro-5-iodopyridine], for which the pest or weed control at 125 ppm in the data set with wheat powdery mildew was not below 90%. For the same compound, the pest or weed control at 500 ppm in the data set on rice blast was not below 90%.

A word on the melting point: it is the temperature, or range, at which the solid turns liquid. For the compound `COc1cc(C)c(C(=O)c2c(F)ncc(C)c2I)c(OC)c1OC` [1-18, 3-(2,3,4-trimethoxy-6-methylbenzoyl)-2-fluoro-4-iodo-5-methylpyridine], the melting point fell in the range of 140 to 141 °C. Further, in the data set with wheat powdery mildew, the pest or weed control at 125 ppm is not below 90%.

Compound `COc1cc(C)c(C(=O)c2c(F)ncc(C)c2C)c(OC)c1OC` [1-19, 3-(2,3,4-trimethoxy-6-methylbenzoyl)-2-fluoro-4,5-dimethylpyridine] registered a melting point of 91 to 92 °C. Besides, the pest or weed control at 125 ppm in the data set with wheat powdery mildew is not below 90%.

Regarding `CCOc1ncc(C)c(C)c1C(=O)c1c(C)cc(OC)c(OC)c1OCC` [1-21, 3-(2-ethoxy-3,4-dimethoxy-6-methylbenzoyl)-2-ethoxy-4,5-dimethylpyridine], the pest or weed control at 125 ppm in the data set with wheat powdery mildew and with cucumber powdery mildew [1] was not below 90% each time.

As to `COc1cc(C)c(C(=O)c2c(SC)ncc(C)c2C)c(OC)c1OC` [1-22, 3-(2,3,4-trimethoxy-6-methylbenzoyl)-4,5-dimethyl-2-methylthiopyridine], the pest or weed control at 125 ppm with wheat powdery mildew and with cucumber powdery mildew [1] was not below 90% in each case. Moreover, the pest or weed control at 500 ppm with rice blast was not below 90%.

For the compound `COc1cc(C)c(C(=O)c2c(OC)ncc(Br)c2Cl)c(OC)c1OC` [1-23, 3-(2,3,4-trimethoxy-6-methylbenzoyl)-5-bromo-4-chloro-2-methoxypyridine], the pest or weed control at 500 g/ha in the data set on cucumber powdery mildew [2] (setting [3]) and with cucumber powdery mildew [2] (setting [4]) was 100% in each case. In addition, the pest or weed control at 125 ppm in the data set with wheat powdery mildew and with cucumber powdery mildew [1] was not below 90% throughout. Also, the pest or weed control at 500 ppm with rice blast was not below 90%.

Regarding `COc1cc(C)c(C(=O)c2c(OC)ncc(C)c2Cl)c(OC)c1OC` [1-24, 3-(2,3,4-trimethoxy-6-methylbenzoyl)-4-chloro-2-methoxy-5-methylpyridine], the pest or weed control at 500 g/ha with cucumber powdery mildew [2] (setting [3]) was 85%; in the data set with cucumber powdery mildew [2] (setting [4]), 100%. In addition, the pest or weed control at 125 ppm in the data set with wheat powdery mildew and with cucumber powdery mildew [1] was not below 90% in each case. Moreover, in the data set on rice blast, the pest or weed control at 500 ppm is not below 90%.

`COc1cc(C)c(C(=O)c2c(OC)ncc(Br)c2C)c(OC)c1OC` [1-36, 3-(2,3,4-trimethoxy-6-methylbenzoyl)-5-bromo-2-methoxy-4-methylpyridine]: the pest or weed control at 125 ppm in the data set on wheat powdery mildew and with cucumber powdery mildew [1] was not below 90% each time.

For `COc1cc(C)c(C(=O)c2c(OC)cnc(Cl)c2C)c(OC)c1OC` [2-1, 4-(2,3,4-trimethoxy-6-methylbenzoyl)-2-chloro-5-methoxy-3-methylpyridine, reference compound], the pest or weed control at 500 g/ha in the data set on cucumber powdery mildew [2] (setting [3]) worked out at 0%; with cucumber powdery mildew [2] (setting [4]), 100%. Moreover, the pest or weed control at 125 ppm in the data set on wheat powdery mildew and in the data set with cucumber powdery mildew [1] was not below 90% in each case.

For `COc1cc(C)c(C(=O)c2c(OC)cnc(C)c2C(F)(F)F)c(OC)c1OC` [2-2, 4-(2,3,4-trimethoxy-6-methylbenzoyl)-3-trifluoromethyl-5-methoxy-2-methylpyridine, reference compound], the pest or weed control at 500 g/ha in the data set on cucumber powdery mildew [2] (setting [3]) stood at 35%; in the data set on cucumber powdery mildew [2] (setting [4]), 100%. The pest or weed control at 125 ppm in the data set on wheat powdery mildew and with cucumber powdery mildew [1] was not below 90% each time.

As to `COc1cc(C)c(C(=O)c2c(OC)cnc(Br)c2C)c(OC)c1OC` [2-3, 4-(2,3,4-trimethoxy-6-methylbenzoyl)-2-bromo-5-methoxy-3-methylpyridine, reference compound], the pest or weed control at 500 g/ha turned out to be 0% in the data set on cucumber powdery mildew [2] (setting [3]) and 100% in the data set with cucumber powdery mildew [2] (setting [4]). In addition, the pest or weed control at 125 ppm in the data set with wheat powdery mildew and in the data set with cucumber powdery mildew [1] was not below 90% throughout. The pest or weed control at 500 ppm in the data set on rice blast is not below 90%.

Turning to `COc1cc(C)c(C(=O)c2c(OC)cnc(C)c2Cl)c(OC)c1OC` [2-4, 4-(2,3,4-trimethoxy-6-methylbenzoyl)-3-chloro-5-methoxy-2-methylpyridine, reference compound], the figures for the pest or weed control at 500 g/ha with cucumber powdery mildew [2] (setting [3]) and in the data set on cucumber powdery mildew [2] (setting [4]) were 35% and 92.5%, respectively. For the same compound, in the data set with wheat powdery mildew, the pest or weed control at 125 ppm is not below 90%.

Turning to `COc1cc(C)c(C(=O)c2c(OC)ccnc2OC)c(OC)c1OC` [2-5, 3-(2,3,4-trimethoxy-6-methylbenzoyl)-2,4-dimethoxypyridine, reference compound], the pest or weed control at 500 g/ha in the data set on cucumber powdery mildew [2] (setting [3]) worked out at 0%; in the data set on cucumber powdery mildew [2] (setting [4]), 95%. In the data set with wheat powdery mildew, the pest or weed control at 125 ppm is not below 90%.

As for `COc1cc(C)c(C(=O)c2c(OC)cnc(Cl)c2Cl)c(OC)c1OC` [2-6, 4-(2,3,4-trimethoxy-6-methylbenzoyl)-2,3-dichloro-5-methoxypyridine, reference compound], the pest or weed control at 500 g/ha with cucumber powdery mildew [2] (setting [3]) came out at 0%; in the data set on cucumber powdery mildew [2] (setting [4]), 90%. Also, the pest or weed control at 125 ppm in the data set on wheat powdery mildew and with cucumber powdery mildew [1] was not below 90% throughout.

With `COc1cc(C)c(C(=O)c2c(OC)ncc(Cl)c2C)c(OC)c1OC` [Compound No. 1-35, 3-(2,3,4-trimethoxy-6-methylbenzoyl)-5-chloro-2-methoxy-4-methylpyridine], the pest or weed control at 500 g/ha in the data set with cucumber powdery mildew [2] (setting [3]) and with cucumber powdery mildew [2] (setting [4]) was 100% each time. In addition, the pest or weed control at 125 ppm in the data set with wheat powdery mildew and in the data set with cucumber powdery mildew [1] was not below 90% throughout. The pest or weed control at 500 ppm with rice blast was not below 90%.

Regarding `COc1cc(C)c(C(=O)c2c(OC)ncc(C)c2C(F)(F)F)c(OC)c1OC` [Compound No. 1-37, 3-(2,3,4-trimethoxy-6-methylbenzoyl)-4-trifluoromethyl-2-methoxy-5-methylpyridine], the pest or weed control at 500 g/ha in the data set with cucumber powdery mildew [2] (setting [3]) and in the data set on cucumber powdery mildew [2] (setting [4]) was 100% each time. The pest or weed control at 125 ppm in the data set on wheat powdery mildew and in the data set with cucumber powdery mildew [1] was not below 90% in each case.
